Where two headings read alike, the source gives them in different places.
Legend:
[1] = biological target: Electrophorus electricus AChE (Electrophorus electricus, UniProt O42275); experiment: biochemical
Experimental: (§1) Cholinesterase activity is determined using a modified colorimetric method first described by Ellman[40]. […] The stock was then further diluted by factors of ten to produce solutions of 1 mM, 100 µM, 10 µM, 1 µM, and 0.1 µM which corresponds to concentrations of 100 µM, 10 µM, 1 µM, 0.1 µM, and 0.01 µM in the final reaction mixture. The test concentrations were stored in the refrigerator until the day of the assay. Trisma HCl buffer (50 mM, adjusted to pH 8 with 2 N NaOH) was prepared as the buffer and used to prepare enzyme stock solution (22 U/ml for Electrophorus electricus AChE and 12 U/ml BuChE from equine serum), 15 mM acetylthiocholine iodide, 15 mM S-butyrylthiocholine iodide and 1.5 mM DTNB (Ellman’s reagent). The enzyme stock solution was stabilised with 1% bovine serum albumin and stored in aliquots at −80 °C. A clear, flat bottom 96 well plate was used to perform the experiments with each concentration performed in triplicate. Prior to the assay the background absorbance for each compound at the different test concentrations was measured and accounted for when reading the final absorbance. […] Following this, 30 µl of the substrate was added to each well simultaneously using a multi pipette. […] A one-sample t-test was performed on the data to test for statistical significance.

BuChE from equine serum = biological target: T1, BuChE from equine serum (Equus caballus, UniProt P81908); experiment: biochemical
T1 construct: 12 U/ml BuChE from equine serum; from tissue; host or cells: equine serum
T1 sequence (P81908 whole entry): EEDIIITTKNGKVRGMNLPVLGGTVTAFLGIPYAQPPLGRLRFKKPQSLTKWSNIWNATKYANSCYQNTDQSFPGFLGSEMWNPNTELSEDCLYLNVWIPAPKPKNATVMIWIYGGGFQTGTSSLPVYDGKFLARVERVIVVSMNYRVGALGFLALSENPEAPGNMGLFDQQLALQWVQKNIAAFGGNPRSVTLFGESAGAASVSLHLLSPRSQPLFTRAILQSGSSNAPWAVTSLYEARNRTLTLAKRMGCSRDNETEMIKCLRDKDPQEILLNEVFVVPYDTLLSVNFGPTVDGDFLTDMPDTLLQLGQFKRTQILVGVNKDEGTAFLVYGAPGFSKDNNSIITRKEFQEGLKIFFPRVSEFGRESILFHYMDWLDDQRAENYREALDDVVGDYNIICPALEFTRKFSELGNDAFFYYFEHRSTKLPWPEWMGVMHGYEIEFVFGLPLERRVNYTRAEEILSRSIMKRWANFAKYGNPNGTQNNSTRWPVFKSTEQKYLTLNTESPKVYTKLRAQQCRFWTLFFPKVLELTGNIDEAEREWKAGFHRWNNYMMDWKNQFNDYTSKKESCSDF
Experimental: as §1

[2] = system: MPP+-compromised SH-SY5Y neuroblastoma cells; type: cell-based, human
Experimental: SH-SY5Y cells were seeded onto a 96-well plate in a growth medium at a density of 10,000 cells/well. Cells were pre-treated with test compounds at a concentration of 10 µM and thereafter 2000 µM MPP^+ following a 2-h incubation period. Afterwards, cells were incubated for 24 h and MTT colorimetric assay was used to measure cell viability relative to untreated control. To determine the data’s statistical significance, the One-way ANOVA Turkey’s multiple comparison test was conducted on all experimental replicates using GraphPad Prism® 8 (San Diego, USA).
The SH-SY5Y cells were pre-treated with 10 µM of the test compounds for 2 h followed by the addition of 2000 µM of MPP^+.

recombinant human MAO-B = recombinant human MAO-B (Homo sapiens, UniProt P27338); experiment: MAO-B fluorometric assay (kynuramine); type: biochemical
Sequence of recombinant human MAO-B (P27338 whole entry): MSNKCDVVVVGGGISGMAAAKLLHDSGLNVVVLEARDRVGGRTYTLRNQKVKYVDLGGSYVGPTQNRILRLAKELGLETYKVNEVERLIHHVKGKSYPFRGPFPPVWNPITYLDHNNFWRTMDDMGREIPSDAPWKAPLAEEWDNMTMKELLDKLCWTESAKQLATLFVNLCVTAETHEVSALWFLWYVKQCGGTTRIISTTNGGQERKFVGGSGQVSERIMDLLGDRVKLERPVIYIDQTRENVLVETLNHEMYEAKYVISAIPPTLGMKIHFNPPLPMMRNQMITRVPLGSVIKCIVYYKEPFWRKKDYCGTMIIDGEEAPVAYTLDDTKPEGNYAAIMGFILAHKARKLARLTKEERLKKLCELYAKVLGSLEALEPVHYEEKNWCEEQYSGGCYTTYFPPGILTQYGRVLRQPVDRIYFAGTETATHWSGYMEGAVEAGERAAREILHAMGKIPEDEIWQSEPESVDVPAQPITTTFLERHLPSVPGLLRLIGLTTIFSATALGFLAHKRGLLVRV
Experimental: . The stock was then further diluted by factors of ten to produce solutions of 1 mM, 100 µM, 10 µM, 1 µM, and 0.1 µM which would correspond to concentrations of 100 µM, 10 µM, 1 µM, 0.1 µM, and 0.01 µM in the final reaction mixture. A potassium phosphate buffer ([…] 100 mM, pH 7.4, 0.9% w/v NaCl) was prepared and refrigerated until further use. The enzyme stock solutions were prepared by dissolving 2.5 mg of enzyme in 33.33 ml of phosphate buffer to produce stock solutions of 0.075 mg/ml which were stored in aliquots at −80 °C until use. […]. The substrate was prepared by dissolving kynuramine in potassium buffer and was prepared as two separate concentrations; […]. The fresh substrate was prepared on the day of the assay. The assay was carried out in 2 ml Eppendorf vials. […] Following this, 25 µl of the enzyme stock were added to each vial in 10 s intervals and the vials were incubated at 37 °C for 10 min. After this time period 15 µl of kynuramine (750 µM for MAO-A and 500 µM for MAO-B) was added at 10 s intervals and further incubated for 20 min. To stop the reaction at the end of this time 150 hx00B5;l of 2 N NaOH was added and the mixture was shaken. Using a micropipette 80 hx00B5;l of the mixture was transferred to a well in a black 96 well plate. The plate was placed in the fluorescent plate reader and read at an excitation/emission wavelength of 310 nm/410 nm. Each assay was run in triplicate and the data were analysed with Graph Pad Prism 8 software (San Diego, USA).
The MAO inhibitory activity of the compounds was assessed using a fluorometric assay with recombinant human MAO-A and human MAO-B enzymes. […].

recombinant human MAO-A = biological target: T2, recombinant human MAO-A (Homo sapiens, UniProt P21397); experiment: biochemical
T2 sequence (P21397 1-527): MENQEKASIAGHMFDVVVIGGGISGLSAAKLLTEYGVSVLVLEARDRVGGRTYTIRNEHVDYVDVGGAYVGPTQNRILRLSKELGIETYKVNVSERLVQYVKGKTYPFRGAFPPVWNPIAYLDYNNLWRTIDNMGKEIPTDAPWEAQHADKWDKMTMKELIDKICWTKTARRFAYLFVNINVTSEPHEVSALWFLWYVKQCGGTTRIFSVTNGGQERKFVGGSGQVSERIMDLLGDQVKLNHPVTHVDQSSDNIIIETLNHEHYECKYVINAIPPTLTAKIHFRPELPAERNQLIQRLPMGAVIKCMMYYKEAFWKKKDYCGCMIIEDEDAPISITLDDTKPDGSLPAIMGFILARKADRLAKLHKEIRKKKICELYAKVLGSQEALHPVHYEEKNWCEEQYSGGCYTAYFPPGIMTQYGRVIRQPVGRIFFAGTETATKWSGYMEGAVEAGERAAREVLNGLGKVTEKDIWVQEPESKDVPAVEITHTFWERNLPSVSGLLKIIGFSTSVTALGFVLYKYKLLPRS
Experimental: The stock was then further diluted by factors of ten to produce solutions of 1 mM, 100 µM, 10 µM, 1 µM, and 0.1 µM which would correspond to concentrations of 100 µM, 10 µM, 1 µM, 0.1 µM, and 0.01 µM in the final reaction mixture. A potassium phosphate buffer ([…] 100 mM, pH 7.4, 0.9% w/v NaCl) was prepared and refrigerated until further use. The enzyme stock solutions were prepared by dissolving 2.5 mg of enzyme in 33.33 ml of phosphate buffer to produce stock solutions of 0.075 mg/ml which were stored in aliquots at −80 °C until use. Once in the final reaction mixture, this enzyme solution will have a concentration of 0.0075 mg/ml. […] The fresh substrate was prepared on the day of the assay. The assay was carried out in 2 ml Eppendorf vials. […] Following this, 25 µl of the enzyme stock were added to each vial in 10 s intervals and the vials were incubated at 37 °C for 10 min. […] To stop the reaction at the end of this time 150 hx00B5;l of 2 N NaOH was added and the mixture was shaken. Using a micropipette 80 hx00B5;l of the mixture was transferred to a well in a black 96 well plate. The plate was placed in the fluorescent plate reader and read at an excitation/emission wavelength of 310 nm/410 nm. Each assay was run in triplicate and the data were analysed with Graph Pad Prism 8 software (San Diego, USA).
The MAO inhibitory activity of the compounds was assessed using a fluorometric assay with recombinant human MAO-A and human MAO-B enzymes.

[3] = Ellman method, 25 °C, pH 8, read-out: AChE IC50
[4] = Ellman method, 25 °C, pH 8, read-out: BuChE IC50
[5] = 10 µM compound, 2 h pre-treatment, 2000 µM MPP+, 24 h, SH-SY5Y
[6] = kynuramine 30 µM, 37 °C, read-out: MAO-B IC50
[7] = kynuramine 45 µM, 37 °C, read-out: MAO-A IC50

Sequence of Electrophorus electricus AChE (O42275 24-633): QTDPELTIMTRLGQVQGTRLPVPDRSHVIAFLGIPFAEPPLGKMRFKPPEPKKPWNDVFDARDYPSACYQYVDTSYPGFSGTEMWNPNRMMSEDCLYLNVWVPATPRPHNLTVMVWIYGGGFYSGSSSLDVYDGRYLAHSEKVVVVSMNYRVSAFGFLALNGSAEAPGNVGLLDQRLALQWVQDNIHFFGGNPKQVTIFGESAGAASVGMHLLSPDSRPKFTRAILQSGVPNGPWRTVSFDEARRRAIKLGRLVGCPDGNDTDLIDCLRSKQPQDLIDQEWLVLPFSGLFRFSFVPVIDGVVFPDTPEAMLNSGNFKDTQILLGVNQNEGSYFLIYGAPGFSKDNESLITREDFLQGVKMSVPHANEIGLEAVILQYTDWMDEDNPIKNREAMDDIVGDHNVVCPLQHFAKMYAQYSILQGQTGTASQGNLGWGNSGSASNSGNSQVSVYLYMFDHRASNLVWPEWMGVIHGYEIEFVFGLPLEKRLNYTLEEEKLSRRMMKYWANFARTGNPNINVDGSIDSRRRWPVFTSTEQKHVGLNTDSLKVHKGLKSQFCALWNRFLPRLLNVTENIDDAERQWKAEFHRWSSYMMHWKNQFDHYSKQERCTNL

Row | Compound | IC50 [1, 3] [µM] | IC50 (BuChE from equine serum; [4]) [µM] | MPP+ neuroprotection (difference in percentage cell viability vs MPP+ only treated cells) [2, 5] [%] | SI MAO-B (MAO-B selectivity index = IC50(MAO-A)/IC50(MAO-B)) (recombinant human MAO-B) | IC50 (recombinant human MAO-B; [6]) [µM] | IC50 (recombinant human MAO-A; [7]) [µM] | IC50 ([1]; AChE IC50) [µM] | IC50 (BuChE from equine serum) [µM] | MPP+ neuroprotection (difference in percentage cell viability vs MPP+ only treated cells) [2] [%] | IC50 (recombinant human MAO-B) [µM] | IC50 (recombinant human MAO-A; MAO-A IC50) [µM]
1 | CCN(CC)C(=O)Oc1ccc2cc(C)c(=O)oc2c1 [Compound 3, 3-methyl-2-oxo-2H-1-benzopyran-7-yl-diethylcarbamate] | > 100 | > 100 | 15.59 | 5.67 | 0.498 | 2.82 |  |  |  |  | 
2 | Cc1cc2ccc(OCCc3ccccc3)cc2oc1=O [Compound 2, 3-methyl-7-(2-phenylethoxy)-2H-1-benzopyran-2-one] | > 100 | > 100 | 24.85 | 47.7 | 0.014 | 0.658 |  |  |  |  | 
3 | Cc1cc2ccc(O)cc2oc1=O [Compound 1, 7-hydroxy-3-methyl-2H-1-benzopyran-2-one] |  |  |  | 2.04 |  |  | > 100 | 20.2 | 26.24 | 16.4 | 33.4
